Source: patent publication US9730938B2, “Bruton's tyrosine kinase inhibitor combinations and uses thereof” (Pharmacyclics LLC, priority 2014, dated 2017)

Legend:
OCI-Ly3 cells = experiment: 3-day CellTiter Glow combination study in OCI-Ly3 cells; format: cell-based; conditions: in combination with ibrutinib; FIG. 7
Procedure: (§1) Jeko cells, a MCL cell line, and OCI-Ly3, a DLBCL cell line, were used for this experiment.
(§2) In summary, 10,000 cells were plated into 96-well plates and treated with different concentrations of inhibitors. 3 days later, CellTiter Glow reagent was added into the wells and the luminescent signals were measured.

Jeko cells = experiment: 3-day CellTiter Glow combination study in Jeko cells with wild-type or mutant CARD11; format: cell-based; conditions: FIG. 6
Procedure: as §1, §2

CARD11 / NF-κB pathway = experiment: Western blot analysis, Jeko cells containing CARD11 L225LI (mut10); format: cell-based; conditions: FIG. 8
Procedure: The cell lysates were prepared from the cells which were treated with different concentrations of inhibitors for overnight incubation. Antibodies that correlate to the proteins of interest were used for detection.

TMD8 = experiment: Combined drug treatment cell viability, CellTiter-Glo assay (Example 1); format: cell-based; conditions: 3 days
Procedure: (§3) DLBCL cells at either 1×10^4 cells or 2×10^4 cells were plated onto each well of a 96-W plate (Table 1).
(§4) The stock solutions for the IDH1 inhibitor AGI5198 and the MALT1 inhibitor MI-2 were each prepared at 50 mM concentration.
(§5) The 96-W plate was then incubated for 3 days. Cell viability was examined using a CellTiter-Glo assay.
(§6) A 40 μL of CellTiter-Glo reagent was added directly into each well of the 96-W plate. The plate was then shaken on a Shaker (Labsystem Wellmix) at speed 5 for 10-20 min at room temperature. Next, 100 μL of the mixed medium was transferred to a white, non-transparent, flat bottom 96-W plate for assaying. A Flexstation 3 luminometer was used for detecting and measuring the luminescent signals. Measurements were taken at room temperature.
(§7) In general, the combination is described as synergistic (CI<1), additive (CI=1), or antagonistic (CI>1). Synergism is further separated into very strong synergism (<0.1), strong synergism (0.1-0.3), synergism (0.3-0.7), moderate synergism (0.7-0.85), and slight synergism (0.85-0.9).

OCI-LY-3 = experiment: as above; format: cell-based; conditions: 3 days
Procedure: as §3, §4, §5, §6, §7

U2932 = experiment: as above; format: cell-based; conditions: 3 days
Procedure: as §3, §4, §5, §6, §7

OCI-LY-10 = experiment: as above; format: cell-based; conditions: 3 days
Procedure: as §3, §4, §5, §6, §7

SU-DHL-2 = experiment: as above; format: cell-based; conditions: 3 days
Procedure: as §3, §4, §5, §6, §7

ABC-DLBCL cells = conditions: Ferch et al. 2009; Hailfinger et al. 2009; cited from earlier work
[1] = ibrutinib 0 nM, IDH1i 10 uM / MALT1i 5 uM alone
[2] = ibrutinib 0.0256 nM, IDH1i 10 uM / MALT1i 5 uM / medium alone
[3] = ibrutinib 0.128 nM, IDH1i 10 uM / MALT1i 5 uM / medium alone
[4] = ibrutinib 0.64 nM, IDH1i 10 uM / MALT1i 5 uM / medium alone
[5] = ibrutinib 3.2 nM, IDH1i 10 uM / MALT1i 5 uM / medium alone
[6] = ibrutinib 16 nM, IDH1i 10 uM / MALT1i 5 uM / medium alone
[7] = ibrutinib 80 nM, IDH1i 10 uM / MALT1i 5 uM / medium alone
[8] = ibrutinib 400 nM, IDH1i 10 uM / MALT1i 5 uM / medium alone
[9] = ibrutinib 2000 nM, IDH1i 10 uM / MALT1i 5 uM / medium alone
[10] = ibrutinib 10000 nM, IDH1i 10 uM / MALT1i 5 uM / medium alone
[11] = ibrutinib 0 nM, IDH1i 10 uM / MALT1i 200 nM alone
[12] = ibrutinib 0.0256 nM, IDH1i 10 uM / MALT1i 200 nM / medium alone
[13] = ibrutinib 0.128 nM, IDH1i 10 uM / MALT1i 200 nM / medium alone
[14] = ibrutinib 0.64 nM, IDH1i 10 uM / MALT1i 200 nM / medium alone
[15] = ibrutinib 3.2 nM, IDH1i 10 uM / MALT1i 200 nM / medium alone
[16] = ibrutinib 16 nM, IDH1i 10 uM / MALT1i 200 nM / medium alone
[17] = ibrutinib 80 nM, IDH1i 10 uM / MALT1i 200 nM / medium alone
[18] = ibrutinib 400 nM, IDH1i 10 uM / MALT1i 200 nM / medium alone
[19] = ibrutinib 2000 nM, IDH1i 10 uM / MALT1i 200 nM / medium alone
[20] = ibrutinib 10000 nM, IDH1i 10 uM / MALT1i 200 nM / medium alone

For `CC(C)C[C@H](NC(=O)[C@H](CCc1ccccc1)NC(=O)CN1CCOCC1)C(=O)N[C@@H](Cc1ccccc1)C(=O)N[C@@H](CC(C)C)C(=O)[C@@]1(C)CO1` [Carfilzomib], the “sensitization of OCI-Ly3 cells” value (OCI-Ly3 cells) was “sensitized” and the “sensitization of Jeko cells containing the mutant CARD11 to ibrutinib treatment” value (Jeko cells) was “sensitized”.

For `COCCOc1nc(-c2ccc(Cl)c(Cl)c2)n(-c2ccc(NC(=O)CCl)cc2)n1` [MI-2], the “effect on NF-κB pathway together with ibrutinib” value (CARD11 / NF-κB pathway) was “in some instances synergize with ibrutinib to inhibit the NF-κB pathway”, the “effect on CARD11 protein” value (CARD11 / NF-κB pathway; overnight incubation) was “cause degradation of CARD11” and the “luminescence (CellTiter-Glo)” value (TMD8; ibrutinib 0 nM, IDH1i 10 uM / MALT1i 100 nM alone) was 71955.73. The “luminescence (CellTiter-Glo)” value (TMD8; ibrutinib 0.0256 nM, IDH1i 10 uM / MALT1i 100 nM / medium alone) was 26784.40, the “luminescence (CellTiter-Glo)” value (TMD8; ibrutinib 0.128 nM, IDH1i 10 uM / MALT1i 100 nM / medium alone) was 23958.89 and the “luminescence (CellTiter-Glo)” value (TMD8; ibrutinib 0.64 nM, IDH1i 10 uM / MALT1i 100 nM / medium alone) was 25405.91. The “luminescence (CellTiter-Glo)” value (TMD8; ibrutinib 3.2 nM, IDH1i 10 uM / MALT1i 100 nM / medium alone) was 24014.24, the “luminescence (CellTiter-Glo)” value (TMD8; ibrutinib 16 nM, IDH1i 10 uM / MALT1i 100 nM / medium alone) was 22888.78 and the “luminescence (CellTiter-Glo)” value (TMD8; ibrutinib 80 nM, IDH1i 10 uM / MALT1i 100 nM / medium alone) was 22045.34. The “luminescence (CellTiter-Glo)” value (TMD8; ibrutinib 400 nM, IDH1i 10 uM / MALT1i 100 nM / medium alone) was 21591.99, the “luminescence (CellTiter-Glo)” value (TMD8; ibrutinib 2000 nM, IDH1i 10 uM / MALT1i 100 nM / medium alone) was 21278.34 and the “luminescence (CellTiter-Glo)” value (TMD8; ibrutinib 10000 nM, IDH1i 10 uM / MALT1i 100 nM / medium alone) was 9754.88. The “luminescence (CellTiter-Glo)” value (OCI-LY-3; [1]) was 23290.74, the “luminescence (CellTiter-Glo)” value (OCI-LY-3; [2]) was 25371.59 and the “luminescence (CellTiter-Glo)” value (OCI-LY-3; [3]) was 26368.71. For the same compound, the “luminescence (CellTiter-Glo)” value (OCI-LY-3; [4]) was 24778.56, the “luminescence (CellTiter-Glo)” value (OCI-LY-3; [5]) was 26610.12 and the “luminescence (CellTiter-Glo)” value (OCI-LY-3; [6]) was 27654.48. The “luminescence (CellTiter-Glo)” value (OCI-LY-3; [7]) was 27617.74, the “luminescence (CellTiter-Glo)” value (OCI-LY-3; [8]) was 25227.27 and the “luminescence (CellTiter-Glo)” value (OCI-LY-3; [9]) was 26843.66. The “luminescence (CellTiter-Glo)” value (OCI-LY-3; [10]) was 23784.06, the “luminescence (CellTiter-Glo)” value (U2932; [11]) was 54720.82 and the “luminescence (CellTiter-Glo)” value (U2932; [12]) was 48183.41. For the same compound, the “luminescence (CellTiter-Glo)” value (U2932; [13]) was 46995.03, the “luminescence (CellTiter-Glo)” value (U2932; [14]) was 49419.22 and the “luminescence (CellTiter-Glo)” value (U2932; [15]) was 48821.08. For the same compound, the “luminescence (CellTiter-Glo)” value (U2932; [16]) was 44565.57, the “luminescence (CellTiter-Glo)” value (U2932; [17]) was 47234.82 and the “luminescence (CellTiter-Glo)” value (U2932; [18]) was 41263.93. For the same compound, the “luminescence (CellTiter-Glo)” value (U2932; [19]) was 45695.98, the “luminescence (CellTiter-Glo)” value (U2932; [20]) was 31838.57 and the “luminescence (CellTiter-Glo)” value (OCI-LY-10; [1]) was 19317.19. The “luminescence (CellTiter-Glo)” value (OCI-LY-10; [2]) was 21817.96, the “luminescence (CellTiter-Glo)” value (OCI-LY-10; [3]) was 17802.53 and the “luminescence (CellTiter-Glo)” value (OCI-LY-10; [4]) was 16971.57. The “luminescence (CellTiter-Glo)” value (OCI-LY-10; [5]) was 13413.69, the “luminescence (CellTiter-Glo)” value (OCI-LY-10; [6]) was 7749.49 and the “luminescence (CellTiter-Glo)” value (OCI-LY-10; [7]) was 9592.85. For the same compound, the “luminescence (CellTiter-Glo)” value (OCI-LY-10; [8]) was 9064.30, the “luminescence (CellTiter-Glo)” value (OCI-LY-10; [9]) was 10110.89 and the “luminescence (CellTiter-Glo)” value (OCI-LY-10; [10]) was 9734.85. The “luminescence (CellTiter-Glo)” value (SU-DHL-2; [11]) was 131429.7, the “luminescence (CellTiter-Glo)” value (SU-DHL-2; [12]) was 127667.9 and the “luminescence (CellTiter-Glo)” value (SU-DHL-2; [13]) was 145168.7. For the same compound, the “luminescence (CellTiter-Glo)” value (SU-DHL-2; [14]) was 148058.4, the “luminescence (CellTiter-Glo)” value (SU-DHL-2; [15]) was 156036.5 and the “luminescence (CellTiter-Glo)” value (SU-DHL-2; [16]) was 153735.3. The “luminescence (CellTiter-Glo)” value (SU-DHL-2; [17]) was 154662.6, the “luminescence (CellTiter-Glo)” value (SU-DHL-2; [18]) was 152400.8 and the “luminescence (CellTiter-Glo)” value (SU-DHL-2; [19]) was 151552.3. For the same compound, the “luminescence (CellTiter-Glo)” value (SU-DHL-2; [20]) was 61725.8 and the “sensitization of Jeko cells containing the mutant CARD11 to ibrutinib treatment” value (Jeko cells) was “sensitized”.

In the case of Z-VRPR-FMK, the “effect on ABC-DLBCL cells” value (ABC-DLBCL cells) is given as “exerts toxic effects”.
